These results are taken from US20140349955A1, “USE OF FLUORINE-CONTAINING WATER SOLUBLE PLATINUM COMPLEX IN PREPARING DRUGS FOR PREVENTION AND TREATMENT OF CANCERS” (GUDUI BIOPHARMA TECHNOLOGY INC., priority 2011, published 2014).

What all share (type): cell-based, human
Holding throughout (details): 96 h

One assay concerns DU145. Briefly: Synergistic cytotoxicity test (MTS), DU145. The procedure: (§1) Containing 10% bovine fetal serum, 1 mM of sodium pyruvate, 2 mM of L-glutamine, 50 U/mL of penicillin, 50 μg/ mL of streptomycin.
(§2) Human tumor cells: du145-human prostate cancer; MCF-7-human breast cancer; SK0V3-human ovarian carcinoma, HT-29-human colon cancer; A549-human non-small cell lung cancer (adenocarcinoma), H460-human non-small cell lung cancer (large cell carcinoma), and animal tumor cells: L1210-mice leukemia cells used in the following activity test experiments were all purchased from Shanghai An Yan Commercial Trade Co., Ltd.
(§3) MTS test method was used in cytotoxicity assay. The tumor cells of logarithmic phase were collected, and then the concentration of cell suspension was adjusted, 100 μL of the cell suspension was added to each well, the cells were placed at 1000-10000 cells/well (edge well filled with sterile PBS). Cells were incubated at 37° C. with 5% CO2 to make cell monolayer overspread the bottom of each well (96-well flat-bottomed microplate). 100 μL of certain concentration solution of a mixture of the fluorine-containing water-soluble platinum complex with other antitumor agents was added to each well. Each condition was measured in five replicates. The microplate was incubated at 37° C. with 5% CO2 for 96 h and checked with inverted microscope. MTS working reagent: To 2 mL of MTS (2 mg/mL, prepared by DPBS) was added 100 μL of PMS (1 mg/mL, prepared by DPBS). The cell culture medium was discarded after centrifugation, the cell culture plate was carefully washed 2-3 times with PBS. Before detecting the absorbance value (OD), to each sample containing well was added 100 μL of cell culture medium, then 20 μL of MTS working reagent was added. After incubation at 37° C. with 5% CO2 for 2 h, the OD (optical density) value was detected at 490 nm.
(§4) Each of above experiment was repeated five times, and the cell viability was calculated according to the mean OD values.
(§5) Cell Viability (%)=(treated group OD value/control group OD value)×100
(§6) Control group: the conditions are the same as the above without adding the tested drug mixture (100 μL of culture medium was added in stead), and finally the absorbance was measured at 490 nm to obtain the OD value of the tumor cells.
(§7) Drug Group-1: only the fluorine-containing water-soluble platinum complex was added under the above conditions to obtain cell viability of tumor cells.
(§8) Drug Group-2: only the other chemotherapeutic drug (active ingredient) was added under the above conditions to obtain cell viability of tumor cells.
(§9) Drug Combination Group: the fluorine-containing water-soluble platinum complex and other chemotherapeutic drugs were added simultaneously under the above conditions to obtain cell viability of tumor cell. (2) Evaluation Method:
(§10) When the fluorine-containing water-soluble platinum complexes used in combination with other chemotherapy drugs, the inhibition effect on cancer cell proliferation is enhanced or synergistic, and the effect was calculated using the following formula:
(§11) Combination Effect (%)={[(A1-X)+(A2-X)]/(A1-A2)|}×100
(§12) wherein, A1 is the cell viability of drug group-1, A2 is the cell viability of drug group-2, X is the cell viability of drug combination group, (A1-A2)| is the absolute value of the cell viability difference between the two groups.
(§13) Calculated according to the above formula, when the results of [Combination Effect (%)]>+100%, that means the effect of inhibition on cell proliferation is enhanced or synergistic (3) Experimental Result: […]

A further assay deals with MCF7. Nature of the assay: Synergistic cytotoxicity test (MTS), MCF7. How it is done:
as §1, §2, §3, §4, §5, §6, §7, §8, §9, §10, §11, §12, §13

In the next assay the test system is A549. Nature of the assay: Synergistic cytotoxicity test (MTS), A549. The procedure:
as §1, §2, §3, §4, §5, §6, §7, §8, §9, §10, §11, §12, §13

A further assay concerns HT29. Nature of the assay: Synergistic cytotoxicity test (MTS), HT29. How it is done: as §1, §2, §3, §4, §5, §6, §7, §8, §9, §10, §11, §12, §13
A further assay relates to SK0V3. Briefly: Synergistic cytotoxicity test (MTS), SKOV3. The procedure:
as §1, §2, §3, §4, §5, §6, §7, §8, §9, §10, §11, §12, §13

In a further assay the test system is H460. Briefly: Synergistic cytotoxicity test (MTS), H460. The procedure: as §1, §2, §3, §4, §5, §6, §7, §8, §9, §10, §11, §12, §13
Where [1] appears, read: other chemotherapy drug (at its listed dosage) combined with Complex 2 (dosage: 1 μM).
Where [2] appears, read: other chemotherapy drug (at its listed dosage) combined with Complex 3 (dosage: 1 μM).
[3] abbreviates: other chemotherapy drug (at its listed dosage) combined with Complex 5 (dosage: 1 μM).
Setting [4] is: other chemotherapy drug (at its listed dosage) combined with Complex 6 (dosage: 1 μM).
[5] abbreviates: other chemotherapy drug (at its listed dosage) combined with Complex 2 (dosage: 1 μM), SLOV3.
The mark [6] stands for this setting: other chemotherapy drug (at its listed dosage) combined with Complex 3 (dosage: 1 μM), SlOV3.
Setting [7] is: other chemotherapy drug (at its listed dosage) combined with Complex 5 (dosage: 1 μM), SLOV3.
The mark [8] stands for this setting: other chemotherapy drug (at its listed dosage) combined with Complex 6 (dosage: 1 μM), SLOV3.

With `CCc1c2c(nc3ccc(OC(=O)N4CCC(N5CCCCC5)CC4)cc13)-c1cc3c(c(=O)n1C2)COC(=O)[C@]3(O)CC` [Irinotecan], the “the effect of drug combination (Combination Effect)” value (from here on “the effect of drug combination”) in the assay with DU145 (setting [1]), in the assay with DU145 (setting [2]), in the assay on DU145 (setting [3]), in the assay with DU145 (setting [4]), with MCF7 (setting [1]) and in the assay on MCF7 (setting [2]) was “○ (○ represents: 100% < the effect of drug combination < 300%)” in each case. Also, the “the effect of drug combination” value in the assay with MCF7 (setting [3]) is “○ (○ represents: 100% < the effect of drug combination < 300%)”; in the assay with MCF7 (setting [4]), “○ (○ represents: 100% < the effect of drug combination < 300%)”; in the assay with A549 (setting [1]), “⊚ (⊚ represents the effect of drug combination > 300%)”; in the assay on A549 (setting [2]), “⊚ (⊚ represents the effect of drug combination > 300%)”; in the assay on HT29 (setting [1]) it was “⊚ (⊚ represents the effect of drug combination > 300%)”; in the assay with HT29 (setting [2]), “⊚ (⊚ represents the effect of drug combination > 300%)”. Moreover, the “the effect of drug combination” value in the assay with HT29 (setting [3]), in the assay on HT29 (setting [4]), in the assay on SK0V3 (setting [5]), in the assay on SK0V3 (setting [6]), in the assay with SK0V3 (setting [7]) and in the assay on SK0V3 (setting [8]) was “⊚ (⊚ represents the effect of drug combination > 300%)” throughout. Also, the “the effect of drug combination” value in the assay with H460 (setting [3]) and in the assay with H460 (setting [4]) was “⊚ (⊚ represents the effect of drug combination > 300%)” throughout.
Take `CC(=O)O[C@H]1C(=O)[C@@]2(C)[C@H]([C@H](OC(=O)c3ccccc3)[C@]3(O)C[C@H](OC(=O)[C@H](O)[C@@H](NC(=O)c4ccccc4)c4ccccc4)C(C)=C1C3(C)C)[C@]1(OC(C)=O)CO[C@@H]1C[C@@H]2O` [Paclitaxel]: the “the effect of drug combination” value in the assay on DU145 (setting [1]) is recorded as “○ (○ represents: 100% < the effect of drug combination < 300%)”; with DU145 (setting [2]), “⊚ (⊚ represents the effect of drug combination > 300%)”; with DU145 (setting [3]), “⊚ (⊚ represents the effect of drug combination > 300%)”; in the assay with DU145 (setting [4]), “⊚ (⊚ represents the effect of drug combination > 300%)”; with MCF7 (setting [1]), “⊚ (⊚ represents the effect of drug combination > 300%)”; in the assay on MCF7 (setting [2]), “⊚ (⊚ represents the effect of drug combination > 300%)”. The “the effect of drug combination” value in the assay on MCF7 (setting [3]), with MCF7 (setting [4]), in the assay on A549 (setting [1]), in the assay on A549 (setting [2]), in the assay on HT29 (setting [1]) and in the assay with HT29 (setting [2]) was “⊚ (⊚ represents the effect of drug combination > 300%)” throughout. Besides, the “the effect of drug combination” value in the assay on HT29 (setting [3]) was “⊚ (⊚ represents the effect of drug combination > 300%)”; in the assay with HT29 (setting [4]), “○ (○ represents: 100% < the effect of drug combination < 300%)”; in the assay with SK0V3 (setting [5]), “⊚ (⊚ represents the effect of drug combination > 300%)”; in the assay on SK0V3 (setting [6]) it was “⊚ (⊚ represents the effect of drug combination > 300%)”; in the assay on SK0V3 (setting [7]), “⊚ (⊚ represents the effect of drug combination > 300%)”; in the assay with SK0V3 (setting [8]), “⊚ (⊚ represents the effect of drug combination > 300%)”. Moreover, the “the effect of drug combination” value with H460 (setting [3]) and in the assay with H460 (setting [4]) was “⊚ (⊚ represents the effect of drug combination > 300%)” in each case.
For the molecule `C#Cc1cccc(Nc2ncnc3cc(OCCOC)c(OCCOC)cc23)c1` [Tarceva], the “the effect of drug combination” value in the assay on DU145 (setting [1]), with DU145 (setting [2]), in the assay on DU145 (setting [3]), in the assay with DU145 (setting [4]), in the assay with MCF7 (setting [1]) and in the assay with MCF7 (setting [2]) was “○ (○ represents: 100% < the effect of drug combination < 300%)” in each case. Besides, the “the effect of drug combination” value is given as “○ (○ represents: 100% < the effect of drug combination < 300%)” with MCF7 (setting [3]); “○ (○ represents: 100% < the effect of drug combination < 300%)” in the assay on MCF7 (setting [4]); “⊚ (⊚ represents the effect of drug combination > 300%)” in the assay on A549 (setting [1]); “⊚ (⊚ represents the effect of drug combination > 300%)” with A549 (setting [2]); “⊚ (⊚ represents the effect of drug combination > 300%)” in the assay on HT29 (setting [1]); “⊚ (⊚ represents the effect of drug combination > 300%)” in the assay on HT29 (setting [2]). The “the effect of drug combination” value with HT29 (setting [3]) is “⊚ (⊚ represents the effect of drug combination > 300%)”; in the assay on HT29 (setting [4]) it was “⊚ (⊚ represents the effect of drug combination > 300%)”; with SK0V3 (setting [5]) it was “○ (○ represents: 100% < the effect of drug combination < 300%)”; in the assay on SK0V3 (setting [6]) it was “○ (○ represents: 100% < the effect of drug combination < 300%)”; in the assay with SK0V3 (setting [7]), “○ (○ represents: 100% < the effect of drug combination < 300%)”; in the assay on SK0V3 (setting [8]) it was “○ (○ represents: 100% < the effect of drug combination < 300%)”. For the same molecule, the “the effect of drug combination” value in the assay with H460 (setting [3]) and in the assay on H460 (setting [4]) was “⊚ (⊚ represents the effect of drug combination > 300%)” each time.
